# Results as given in patent US9073918B2, “Pyrazolo[4,3-b]pyridine-7-amine inhibitors of ALK5” (Takeda Pharmaceutical Company Limited, priority 2010, dated 2015).
# How the values were obtained:
# cellular TGF-β R1 ALK5 = target: T1, cellular TGF-β R1 ALK5 (Homo sapiens, UniProt P36897); test: Cellular inhibition of ALK5 (CellSensor SBE-bla HEK 293T beta-lactamase reporter); type: cell-based; conditions: cellular inhibition of ALK5, SBE-bla HEK 293T cells, TGFb-1 stimulated 5 hours; average where measured in multiple experiments
# T1 construct: host or cells: CellSensor SBE-bla HEK 293T
# T1 sequence (P36897 34-503): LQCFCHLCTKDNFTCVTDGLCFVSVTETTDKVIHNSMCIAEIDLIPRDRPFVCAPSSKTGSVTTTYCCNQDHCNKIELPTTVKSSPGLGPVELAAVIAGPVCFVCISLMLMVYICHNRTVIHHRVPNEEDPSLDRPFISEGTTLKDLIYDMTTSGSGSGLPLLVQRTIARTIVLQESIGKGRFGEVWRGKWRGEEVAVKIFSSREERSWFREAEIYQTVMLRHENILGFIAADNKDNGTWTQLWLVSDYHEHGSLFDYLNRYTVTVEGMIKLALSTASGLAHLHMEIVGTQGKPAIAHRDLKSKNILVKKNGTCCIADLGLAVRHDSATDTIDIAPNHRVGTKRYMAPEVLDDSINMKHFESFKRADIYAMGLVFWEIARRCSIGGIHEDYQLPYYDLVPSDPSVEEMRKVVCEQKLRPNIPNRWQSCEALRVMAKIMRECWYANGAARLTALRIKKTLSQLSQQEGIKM
# Description: Test compounds were screened for cellular TGF-β R1 ALK5 inhibition by use of a CellSensor® SBE-bla HEK 293T (K1550, Invitrogen Corp. Madison, Wis.) cell line. The CellSensor® SBE-bla HEK 293T cell line contains a beta-lactamase reporter gene under control of the SBE response element stably integrated into HEK 293T cells. The SBE response element is a DNA region that binds activated SMADs which results from the binding of TGF-β to, and subsequent activation of ALK5.
# The assay procedure was as follows:
# CellSensor® SBE-bla HEK 293T cell line were plated at 12,000 cells/well in 40 ul DMEM plus 5 ug/ml blasticidin into 384-well, black-wall, clear-bottom assay plate and incubated overnight.
# The following day 5 uL of 10×, 2.5-fold serially diluted test compounds in DMSO were added into cells to a final compound concentration of 1× and DMSO concentration of 0.5%. Assay was incubated for 1 hour at 37° C., 5% CO2, 5 uL of 100 ng/mL TGFb-1 was then added to activate ALK5 and incubated for 5 hours at 37° C., 5% CO2, 10 uL of detector, LiveBLAzer FRET B/G substrate (CCF4-AM, Invitrogen Corp. Madison, Wis.) was added to cells and incubated for 2 hours at RT. Assay was measured using Spectramax, a bottom-read fluorescence plate reader, at excitation setting of 405 nm and emission settings of 460 nm and 530 nm.
# Response is defined as the ratio of background corrected 460 nm emission values/background corrected 530 nm emission values. Cellular activity was defined as percent inhibition of uninhibited ALK5 activity (wells treated with DMSO+TGF-β). The percent inhibition of cellular ALK5 at a given compound concentration is defined as: 100%×[1−(response compound+TGF-β/response DMSO+TGF-β)] where response compound+TGF-β is defined as the activity in the presence of test compound and response DMSO+TGF-β is defined as the uninhibited cellular ALK5 activity. The pIC50 value (negative log of the molar concentration of the compound that produces 50% inhibition) of a test compound is calculated by non-linear least squares curve fitting. pIC50 values, the negative of the log of the IC50, are calculated by non-linear curve fitting of the compound concentrations and percent of inhibition to the standard pIC50 equation.
# Where inhibition was measured in multiple experiments the value in Table 2 is an average. N.T. means not tested.
# TGF-β R1 ALK5 = target: T2, TGF-β R1 ALK5 (Homo sapiens, UniProt P36897); test: In vitro inhibition of ALK5 (LanthaScreen activity assay, TR-FRET); type: biochemical
# T2 construct: purchased Invitrogen PV5837
# T2 sequence (P36897 34-503): T1 sequence (P36897 34-503)
SMILES,IC50 (cellular TGF-β R1 ALK5),IC50 (TGF-β R1 ALK5)
"Cc1cnc(-c2cc(Cl)ccc2F)cc1Nc1ccnc2cn(C(C)(C)C(N)=O)nc12 [Example 55, 2-(7-(2-(5-chloro-2-fluorophenyl)-5-methylpyridin-4-ylamino)-2H-pyrazolo[4,3-b]pyridin-2-yl)-2-methylpropanamide]",631 nM,79.4 nM
"CNC(=O)n1ncc2nccc(Nc3cc(C)nc(-c4cc(Cl)ccc4F)c3)c21 [Example 58, 7-(2-(5-chloro-2-fluorophenyl)-6-methylpyridin-4-ylamino)-N-methyl-1H-pyrazolo[4,3-b]pyridine-1-carboxamide]",126 nM,79.4 nM
"Cc1cc(Nc2ccnc3cnn(CC(N)=O)c23)cc(-c2cc(Cl)ccc2F)n1 [Example 60A, 2-(7-(2-(5-chloro-2-fluorophenyl)-6-methylpyridin-4-ylamino)-1H-pyrazolo[4,3-b]pyridin-1-yl)acetamide]",501 nM,31.6 nM
"CNC(=O)n1ncc2nccc(Nc3ccnc(-c4cc(Cl)c(F)cc4F)c3)c21 [Example 63, 7-(2-(5-chloro-2,4-difluorophenyl)pyridin-4-ylamino)-N-methyl-1H-pyrazolo[4,3-b]pyridine-1-carboxamide]",398 nM,31.6 nM
"Cc1ccc(F)c(-c2cc(Nc3ccnc4cnn(C)c34)ccn2)n1 [Example 65, N-(3′-fluoro-6′-methyl-2,2′-bipyridin-4-yl)-1-methyl-1H-pyrazolo[4,3-b]pyridin-7-amine]",126 nM,100 nM
"Cc1ccc(F)c(-c2cc(Nc3ccnc4cn(C)nc34)ccn2)n1 [Example 66, N-(3′-fluoro-6′-methyl-2,2′-bipyridin-4-yl)-2-methyl-2H-pyrazolo[4,3-b]pyridin-7-amine]",39.8 nM,39.8 nM
"Cc1ccc(F)c(-c2cc(Nc3ccnc4cnn(C(C)C)c34)ccn2)n1 [Example 67, N-(3′-fluoro-6′-methyl-2,2′-bipyridin-4-yl)-1-isopropyl-1H-pyrazolo[4,3-b]pyridin-7-amine]",126 nM,126 nM
"Cc1ccc(F)c(-c2cc(Nc3ccnc4cn(C(C)C)nc34)ccn2)n1 [Example 68, N-(3′-fluoro-6′-methyl-2,2′-bipyridin-4-yl)-2-isopropyl-2H-pyrazolo[4,3-b]pyridin-7-amine]",1260 nM,1260 nM
"Cc1ccc(F)c(-c2cc(Nc3ccnc4cn(C[C@H](O)CO)nc34)ccn2)n1 [Example 69, (S)-3-(7-(3′-fluoro-6′-methyl-2,2′-bipyridin-4-ylamino)-2H-pyrazolo[4,3-b]pyridin-2-yl)propane-1,2-diol]",5010 nM,5010 nM
"Cc1ccc(F)c(-c2cc(Nc3ccnc4cnn(CC(C)(C)O)c34)ccn2)n1 [Example 70, 1-(7-(3′-fluoro-6′-methyl-2,2′-bipyridin-4-ylamino)-1H-pyrazolo[4,3-b]pyridin-1-yl)-2-methylpropan-2-ol]",31.6 nM,15.8 nM
"Cc1ccc(F)c(-c2cc(Nc3ccnc4cnn(CCO)c34)ccn2)n1 [Example 71, 2-(7-(3′-fluoro-6′-methyl-2,2′-bipyridin-4-ylamino)-1H-pyrazolo[4,3-b]pyridin-1-yl)ethanol]",63.1 nM,50.1 nM
"COCCn1ncc2nccc(Nc3ccnc(-c4nc(C)ccc4F)c3)c21 [Example 73, N-(3′-fluoro-6′-methyl-2,2′-bipyridin-4-yl)-1-(2-methoxyethyl)-1H-pyrazolo[4,3-b]pyridin-7-amine]",63.1 nM,15.8 nM
"CNC(=O)n1ncc2nccc(Nc3cc(-c4cccc(C)n4)ncc3C)c21 [Example 81, 7-(5,6′-dimethyl-2,2′-bipyridin-4-ylamino)-N-methyl-1H-pyrazolo[4,3-b]pyridine-1-carboxamide]",126 nM,63.1 nM
"NC(=O)Cn1ncc2nccc(Nc3ccnc(-c4cc(F)ccc4F)c3)c21 [Example 86, 2-(7-(2-(2,5-difluorophenyl)pyridin-4-ylamino)-1H-pyrazolo[4,3-b]pyridin-1-yl)acetamide]",158 nM,50.1 nM
"NC(=O)Cn1cc2nccc(Nc3ccnc(-c4cc(F)ccc4F)c3)c2n1 [Example 87, 2-(7-(2-(2,5-difluorophenyl)pyridin-4-ylamino)-2H-pyrazolo[4,3-b]pyridin-2-yl)acetamide]",251 nM,25.1 nM
"Cc1ccc(F)c(-c2cc(Nc3c(F)cnc4cn(CC(N)=O)nc34)c(C)cn2)n1 [Example 88, 2-(6-fluoro-7-(3′-fluoro-5,6′-dimethyl-2,2′-bipyridin-4-ylamino)-2H-pyrazolo[4,3-b]pyridin-2-yl)acetamide]",158 nM,10 nM
"Cc1ccc(F)c(-c2cc(Nc3ccnc4cnn(CC5CC5)c34)ccn2)n1 [Example 89, 1-(cyclopropylmethyl)-N-(3′-fluoro-6′-methyl-2,2′-bipyridin-4-yl)-1H-pyrazolo[4,3-b]pyridin-7-amine]",200 nM,25.1 nM
"Cc1ccc(F)c(-c2cc(Nc3ccnc4cn(CCCO)nc34)c(C)cn2)n1 [Example 90, 3-(7-(3′-fluoro-5,6′-dimethyl-2,2′-bipyridin-4-ylamino)-2H-pyrazolo[4,3-b]pyridin-2-yl)propan-1-ol]",63.1 nM,7.94 nM
"Cc1ccc(F)c(-c2cc(Nc3c(F)cnc4cn(CCO)nc34)c(C)cn2)n1 [Example 91, 2-(6-fluoro-7-(3′-fluoro-5,6′-dimethyl-2,2′-bipyridin-4-ylamino)-2H-pyrazolo[4,3-b]pyridin-2-yl)ethanol]",158 nM,20 nM
"CCNC(=O)n1ncc2nccc(Nc3nc(-c4cc(F)ccc4F)nc(C)c3C)c21 [Example 92, 7-(2-(2,5-difluorophenyl)-5,6-dimethylpyrimidin-4-ylamino)-N-ethyl-1H-pyrazolo[4,3-b]pyridine-1-carboxamide]",501 nM,79.4 nM
"CCNC(=O)n1ncc2nccc(Nc3ccnc(-c4cc(F)ccc4F)c3)c21 [Example 93, 7-(2-(2,5-difluorophenyl)pyridin-4-ylamino)-N-ethyl-1H-pyrazolo[4,3-b]pyridine-1-carboxamide]",25.1 nM,5.01 nM
"CNC(=O)n1ncc2nccc(Nc3ccnc(-c4cc(F)ccc4F)c3)c21 [Example 94, 7-(2-(2,5-difluorophenyl)pyridin-4-ylamino)-N-methyl-1H-pyrazolo[4,3-b]pyridine-1-carboxamide]",20 nM,2 nM
"Cc1nc(-c2cc(F)ccc2F)cc(Nc2ccnc3c[nH]nc23)c1C [Example 95, N-(6-(2,5-difluorophenyl)-2,3-dimethylpyridin-4-yl)-2H-pyrazolo[4,3-b]pyridin-7-amine]",158 nM,20 nM
"Cc1cnc(-c2cc(F)ccc2F)nc1Nc1ccnc2cn[nH]c12 [Example 96, N-(2-(2,5-difluorophenyl)-5-methylpyrimidin-4-yl)-1H-pyrazolo[4,3-b]pyridin-7-amine]",63.1 nM,20 nM
"CCNC(=O)n1ncc2nccc(Nc3nc(-c4cc(F)ccc4F)ncc3C)c21 [Example 97, 7-(2-(2,5-difluorophenyl)-5-methylpyrimidin-4-ylamino)-N-ethyl-1H-pyrazolo[4,3-b]pyridine-1-carboxamide]",398 nM,15.8 nM
"Cc1ccc(F)c(-c2cc(Nc3ccnc4cnn(C[C@@H](C)O)c34)ccn2)n1 [Example 98, (R)-1-(7-(3′-fluoro-6′-methyl-2,2′-bipyridin-4-ylamino)-1H-pyrazolo[4,3-b]pyridin-1-yl)propan-2-ol]",25.1 nM,6.31 nM
